Reference: patent US20240051937A1, “ISOINDOLINONE AMIDE COMPOUNDS USEFUL TO TREAT DISEASES ASSOCIATED WITH GSPT1” (Monte Rosa Therapeutics, Inc., priority 2021, published 2024)
Where two headings read alike, the source gives them in different places.

Tests used:
[1] = target: GSPT1 (Homo sapiens, UniProt P15170+Q96SW2); test: Selectivity determination by Western blot assay in MM1S cells: GSPT1; type: cell-based; design: MM1S cells were purchased from ATCC (cat. Number CRL-2974); host or cells: MM1S cells; conditions: MM1S cells, 0.3, 3 and 30 μM, 6 hours
Protocol: (§1) MM1S cells were purchased from ATCC (cat. Number CRL-2974), sub-cultured in […] RPMI 1640 with 10% FBS, supplemented with Ix P/S and incubated at 37° C., […]. Compounds were stored as 10 mM DMSO stock. For the assay, MM1S cells (3 million cells/well) were plated in 6-well plates and incubated over night. Cells were treated with respective compounds using a serial dilution: 0.3 μM, 3 μM and 30 μM as well as a vehicle only (DMSO) control for 6 hours. Media with suspension cells was subsequently transferred to 15 mL conical tubes, wells rinsed twice with ice-cold PBS and merged with cell suspension in respective 15 mL conical tube. Cells were spinned down, supernatant aspirated, pellets resuspended in ice-cold PBS and transferred to microtubes. Cells were spinned down, supernatant aspirated and pellets resuspended in 120 μL RIPA lysis buffer supplemented with protease and phosphatase inhibitors. Cell lysates were incubated on ice for 20 minutes followed by centrifugation at >20,000×g for 5 min. Supernatants were transferred to fresh microtubes and stored at −80° C. Total protein concentration was determined using a BCA assay with a BSA standard curve and concentration of all samples was adjusted to 1 mg/mL. […] Chemiluminescence signals were then detected using a LAS-4000 system with default settings and signals quantified using Image Studio Lite software (version 5.2). […]

[2] = target: T1, IKZF1 (Homo sapiens, UniProt Q13422+Q96SW2); test: Selectivity determination by Western blot assay in MM1S cells: IKZF1; type: cell-based; design: key: A represents no degradation observed at 30 μM; B represents trace degradation at 30 μM (below 20%); C represents weak degradation at 30 μM (below 50%); D represents degradation at 30 μM (>90%); E represents degradation at 3 μM (>90%); F represents degradation at 0.3 μM (>90%); conditions: MM1S cells, 0.3, 3 and 30 μM, 6 hours
T1 construct: MM1S cells were purchased from ATCC (cat. Number CRL-2974); host or cells: MM1S cells
Protocol: as §1

[3] = target: T2, Full length wild-type cereblon CRBN (Homo sapiens, UniProt Q96SW2); test: Fluorescence polarization (FP) assay indicating cereblon binding
T2 construct: Full length wild-type cereblon CRBN (80.0 nM, 10 μL) was incubated in assay buffer
Text: Protocol for Fluorescent Polarization Assay
Compound activity was monitored in a fluorescence polarization (FP) homogeneous assay using 1-[5-({2-[2-(2-{[2-(2,6-dioxopiperidin-3-yl)-1,3-dioxo-2,3-dihydro-1H-isoindol-4-yl]oxy}acetamido)ethoxy]ethyl}carbamoyl)pentyl]-3,3-dimethyl-2-[(1E,3E)-5-[(2E)-1,3,3-trimethyl-5-sulfo-2,3-dihydro-1H-indol-2-ylidene]penta-1,3-dien-1-yl]-3H-indol-1-ium-5-sulfonate as a fluorescent probe. Unless otherwise stated, all reagents were purchased from Sigma Aldrich. Enzymatic reactions were conducted in Perkin-Elmer Black 384 well ProxiPlate Plus (catalogue no. 6008269) in 10 μL total volume. Full length wild-type cereblon CRBN (80.0 nM, 10 μL) was incubated in assay buffer containing 20 mM HEPES (pH 8.0), […], 0.5 mM TCEP and 0.05% Tween 20 in the presence or absence of compound (300 nL). Inhibitors were stored as 10 mM DMSO stocks in an inert environment (low humidity, dark, low oxygen, room temperature) using the Storage Pod System. Compounds and DMSO were dispensed using the Echo E5XX (Labcyte Inc. USA) to give concentrations from 300 to 0.937 or 3000 to 9.3 nM in a 12 data point curve. […] Following incubation at room temperature for 30 min, the assay was initiated by dispensing the probe to a final concentration of 5 nM (2.5 nL of a 20 μM stock) using the Echo E5XX. FP was measured after a period of 12 hours using a Pherastar plate reader (BMG Labtech, Germany) exciting at 590 nm and measuring the amount of parallel and perpendicular light at 675 nm. The FP signal was subsequently normalized to the no-compound control (i.e., DMSO). Analysis and IC50 values were derived using Dotmatics (Dotmatics UK) software.

[4] = target: T3, ZFP91 (Homo sapiens, UniProt Q96JP5+Q96SW2); test: Selectivity determination by Western blot assay in MM1S cells: ZFP91; type: cell-based; conditions: MM1S cells, 0.3, 3 and 30 μM, 6 hours
T3 construct: MM1S cells were purchased from ATCC (cat. Number CRL-2974); host or cells: MM1S cells
Protocol: as §1

[5] = cereblon binding, CRBN 80.0 nM, probe 5 nM, FP read after 12 hours, read-out: rFP IC50
[6] = fluorescence polarization assay, read-out: IC50 value (cereblon binding)

T2 sequence (Q96SW2 whole entry): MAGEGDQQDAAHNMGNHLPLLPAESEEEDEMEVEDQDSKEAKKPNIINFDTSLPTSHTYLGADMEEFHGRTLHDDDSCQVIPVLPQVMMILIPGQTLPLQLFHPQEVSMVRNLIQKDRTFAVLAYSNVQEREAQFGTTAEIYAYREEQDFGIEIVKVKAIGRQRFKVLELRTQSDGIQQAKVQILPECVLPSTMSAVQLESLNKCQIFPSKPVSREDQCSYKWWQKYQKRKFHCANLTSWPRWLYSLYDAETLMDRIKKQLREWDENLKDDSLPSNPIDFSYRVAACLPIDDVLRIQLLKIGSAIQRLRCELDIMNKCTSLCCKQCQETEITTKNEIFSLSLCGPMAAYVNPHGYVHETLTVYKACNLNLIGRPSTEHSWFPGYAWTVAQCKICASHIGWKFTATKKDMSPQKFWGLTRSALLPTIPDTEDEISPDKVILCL
Chain of GSPT1 (P15170 whole entry): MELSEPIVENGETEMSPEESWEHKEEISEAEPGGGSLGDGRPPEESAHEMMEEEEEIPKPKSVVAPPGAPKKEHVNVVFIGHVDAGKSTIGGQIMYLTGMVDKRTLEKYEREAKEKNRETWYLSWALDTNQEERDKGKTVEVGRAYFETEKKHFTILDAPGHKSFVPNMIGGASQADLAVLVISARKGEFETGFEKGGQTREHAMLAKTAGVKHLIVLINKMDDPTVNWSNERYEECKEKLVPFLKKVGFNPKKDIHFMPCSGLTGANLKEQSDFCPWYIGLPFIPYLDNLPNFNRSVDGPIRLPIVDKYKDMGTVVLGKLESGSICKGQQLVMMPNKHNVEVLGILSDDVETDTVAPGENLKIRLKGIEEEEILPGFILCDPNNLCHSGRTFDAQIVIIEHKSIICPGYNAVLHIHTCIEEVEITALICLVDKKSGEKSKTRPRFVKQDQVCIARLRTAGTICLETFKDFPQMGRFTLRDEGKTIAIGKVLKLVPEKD
Chain of GSPT1 (Q96SW2 whole entry): as the sequence (Q96SW2 whole entry) above
Chain of GSPT1 (Q16531 whole entry partner): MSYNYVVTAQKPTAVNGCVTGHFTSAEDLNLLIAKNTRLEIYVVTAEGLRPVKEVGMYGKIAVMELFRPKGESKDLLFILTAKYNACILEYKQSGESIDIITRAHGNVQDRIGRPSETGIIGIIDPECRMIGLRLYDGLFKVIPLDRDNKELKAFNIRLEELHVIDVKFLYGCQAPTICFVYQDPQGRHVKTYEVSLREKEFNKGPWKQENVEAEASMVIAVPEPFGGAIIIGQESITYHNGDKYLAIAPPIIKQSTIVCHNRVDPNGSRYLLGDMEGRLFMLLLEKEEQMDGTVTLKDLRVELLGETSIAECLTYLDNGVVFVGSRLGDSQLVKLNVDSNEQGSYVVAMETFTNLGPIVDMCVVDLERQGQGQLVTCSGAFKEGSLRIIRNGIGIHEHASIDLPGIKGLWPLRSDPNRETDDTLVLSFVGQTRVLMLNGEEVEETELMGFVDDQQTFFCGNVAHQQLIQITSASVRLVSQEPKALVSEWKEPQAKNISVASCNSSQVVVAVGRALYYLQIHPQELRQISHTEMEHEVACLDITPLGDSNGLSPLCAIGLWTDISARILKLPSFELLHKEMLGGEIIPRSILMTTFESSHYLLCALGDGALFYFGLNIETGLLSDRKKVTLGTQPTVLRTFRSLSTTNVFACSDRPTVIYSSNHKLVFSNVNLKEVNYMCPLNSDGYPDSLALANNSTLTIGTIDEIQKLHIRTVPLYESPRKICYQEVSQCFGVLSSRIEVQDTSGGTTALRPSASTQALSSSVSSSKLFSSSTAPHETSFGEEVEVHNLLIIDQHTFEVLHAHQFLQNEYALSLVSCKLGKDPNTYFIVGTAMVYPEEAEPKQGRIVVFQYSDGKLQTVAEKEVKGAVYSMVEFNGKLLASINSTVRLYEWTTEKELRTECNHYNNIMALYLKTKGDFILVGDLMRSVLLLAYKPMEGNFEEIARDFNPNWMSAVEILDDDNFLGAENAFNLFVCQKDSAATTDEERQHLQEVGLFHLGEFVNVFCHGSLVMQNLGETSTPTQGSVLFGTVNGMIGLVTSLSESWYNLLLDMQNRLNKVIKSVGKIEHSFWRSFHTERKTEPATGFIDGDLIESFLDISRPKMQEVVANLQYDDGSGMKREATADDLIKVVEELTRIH
T3 sequence (Q96JP5 2-570 limits assumed): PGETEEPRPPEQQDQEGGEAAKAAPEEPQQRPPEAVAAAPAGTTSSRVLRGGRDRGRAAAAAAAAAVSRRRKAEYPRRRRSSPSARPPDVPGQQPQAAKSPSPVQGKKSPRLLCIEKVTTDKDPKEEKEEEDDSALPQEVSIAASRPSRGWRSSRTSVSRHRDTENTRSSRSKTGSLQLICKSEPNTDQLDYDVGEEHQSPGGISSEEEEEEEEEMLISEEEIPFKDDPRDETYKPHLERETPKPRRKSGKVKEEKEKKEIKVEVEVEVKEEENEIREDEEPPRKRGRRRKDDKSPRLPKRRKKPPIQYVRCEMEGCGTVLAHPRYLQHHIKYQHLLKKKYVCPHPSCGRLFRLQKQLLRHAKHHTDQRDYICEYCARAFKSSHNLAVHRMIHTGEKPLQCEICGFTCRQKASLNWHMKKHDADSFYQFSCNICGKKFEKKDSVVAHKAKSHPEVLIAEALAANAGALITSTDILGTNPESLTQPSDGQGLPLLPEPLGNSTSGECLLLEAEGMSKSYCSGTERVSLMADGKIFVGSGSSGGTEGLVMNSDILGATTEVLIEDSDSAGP
T3 sequence (Q96SW2 whole entry): as the sequence (Q96SW2 whole entry) above
T3 sequence (Q16531 whole entry partner): as the sequence (Q16531 whole entry partner) above
T1 sequence (Q13422 whole entry): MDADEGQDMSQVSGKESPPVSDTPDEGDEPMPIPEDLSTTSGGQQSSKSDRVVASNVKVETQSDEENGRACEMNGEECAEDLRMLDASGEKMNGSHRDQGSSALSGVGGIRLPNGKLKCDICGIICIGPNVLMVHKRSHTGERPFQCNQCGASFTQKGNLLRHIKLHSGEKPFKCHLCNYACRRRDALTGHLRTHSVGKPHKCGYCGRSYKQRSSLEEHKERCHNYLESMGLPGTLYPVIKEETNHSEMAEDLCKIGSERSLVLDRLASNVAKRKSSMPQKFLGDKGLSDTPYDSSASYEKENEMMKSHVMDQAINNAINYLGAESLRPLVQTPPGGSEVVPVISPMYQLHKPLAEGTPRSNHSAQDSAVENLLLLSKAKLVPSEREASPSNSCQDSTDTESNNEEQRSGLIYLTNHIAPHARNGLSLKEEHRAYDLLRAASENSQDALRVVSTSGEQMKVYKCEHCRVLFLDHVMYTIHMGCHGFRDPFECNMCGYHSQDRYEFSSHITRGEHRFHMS
T1 sequence (Q96SW2 whole entry): as the sequence (Q96SW2 whole entry) above
T1 sequence (Q16531 whole entry partner): as the sequence (Q16531 whole entry partner) above

## Cc1ccc(NC(=O)CCc2ccc3c(c2)C(=O)N(C2CCC(=O)NC2=O)C3)cc1Cl (stereo not shown) [Compound 1]
[1]
  GSPT1 degradation code: F (F represents degradation at 0.3 μM (>90%))
[2]
  IKZF1 degradation code: A
[3]; [5]
  IC50: ≤ 500 nM
[3]; [6]
  IC50: < 1100 nM
[4]
  ZFP91 degradation code: B (B represents trace degradation at 30 μM (below 20%))

## Cc1c(Cl)cc(NC(=O)CCc2ccc3c(c2)C(=O)N(C2CCC(=O)NC2=O)C3)cc1CN1CCOCC1 (stereo not shown) [Compound 2]
[1]
  GSPT1 degradation code: F (F represents degradation at 0.3 μM (>90%))
[2]
  IKZF1 degradation code: A
[3]; [5]
  IC50: ≤ 500 nM
[3]; [6]
  IC50: < 1100 nM
[4]
  ZFP91 degradation code: C (C represents weak degradation at 30 μM (below 50%))
